Where two headings read alike, the source gives them in different places.
Key:
[1] = molecular target: T1, DCAF1(1073-1399)_E1398S (WDR domain, Avi/His-tagged) (Homo sapiens, UniProt Q9Y4B6, E1398S); assay: TR-FRET competition with bodipy ligand; format: binding; details: 30 mM phosphate pH 7.4, 140 mM NaCl, 22 °C, no BTK added
T1 construct: WDR (WD40) domain 1073-1399 with E1398S; Avi and His tags (N-terminal Avi, C-terminal His for SPR; C-terminal Avi-His for TR-FRET), biotinylated by BirA; Sf9 cells
T1 sequence (Q9Y4B6 1073-1399 E1398S): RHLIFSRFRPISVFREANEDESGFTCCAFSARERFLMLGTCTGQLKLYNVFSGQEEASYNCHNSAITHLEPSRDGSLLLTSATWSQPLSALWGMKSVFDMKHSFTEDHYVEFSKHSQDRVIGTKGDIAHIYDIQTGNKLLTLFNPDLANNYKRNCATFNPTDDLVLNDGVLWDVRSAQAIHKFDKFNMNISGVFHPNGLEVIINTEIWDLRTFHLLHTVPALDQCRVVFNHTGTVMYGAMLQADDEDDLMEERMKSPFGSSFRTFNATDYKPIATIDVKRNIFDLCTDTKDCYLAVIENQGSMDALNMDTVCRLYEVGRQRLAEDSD

[2] = molecular target: T2, BTK kinase domain (389-659) (Homo sapiens, UniProt Q06187); assay: kinase inhibition, Caliper mobility shift; format: biochemical; details: 0.047 mM ATP, 0.002 mM peptide, pH 7.5, 32 °C, 60 min
T2 construct: kinase domain 389-659; His-PreScission (with or without Avi) construct, Sf9 cells
T2 sequence (Q06187 389-659): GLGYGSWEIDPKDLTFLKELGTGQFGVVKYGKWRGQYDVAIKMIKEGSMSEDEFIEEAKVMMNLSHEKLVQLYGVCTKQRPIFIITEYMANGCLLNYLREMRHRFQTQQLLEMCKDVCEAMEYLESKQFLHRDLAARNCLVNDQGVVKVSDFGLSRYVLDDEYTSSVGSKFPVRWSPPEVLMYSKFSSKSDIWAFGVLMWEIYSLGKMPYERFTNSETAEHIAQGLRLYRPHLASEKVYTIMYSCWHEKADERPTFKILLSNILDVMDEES
Text: kinase inhibition, Caliper mobility shift on BTK kinase domain (389-659) | weaker affinity for BTK of the DBt-6 and DBt-8 was additionally corroborated by enzymatic inhibition

BTK-NanoLuc = molecular target: T3, BTK-NanoLuc (Homo sapiens, UniProt Q06187); assay: NanoBRET tracer displacement; format: cell-based; details: digitonin-permeabilized cells, 0.5 µM Tracer-05, 2 h; ATP site
T3 construct: full-length BTK fused to NanoLuc (pLenti6 BTK-Nanoluc), transiently expressed in HEK293-A cells
T3 sequence (Q06187 2-659): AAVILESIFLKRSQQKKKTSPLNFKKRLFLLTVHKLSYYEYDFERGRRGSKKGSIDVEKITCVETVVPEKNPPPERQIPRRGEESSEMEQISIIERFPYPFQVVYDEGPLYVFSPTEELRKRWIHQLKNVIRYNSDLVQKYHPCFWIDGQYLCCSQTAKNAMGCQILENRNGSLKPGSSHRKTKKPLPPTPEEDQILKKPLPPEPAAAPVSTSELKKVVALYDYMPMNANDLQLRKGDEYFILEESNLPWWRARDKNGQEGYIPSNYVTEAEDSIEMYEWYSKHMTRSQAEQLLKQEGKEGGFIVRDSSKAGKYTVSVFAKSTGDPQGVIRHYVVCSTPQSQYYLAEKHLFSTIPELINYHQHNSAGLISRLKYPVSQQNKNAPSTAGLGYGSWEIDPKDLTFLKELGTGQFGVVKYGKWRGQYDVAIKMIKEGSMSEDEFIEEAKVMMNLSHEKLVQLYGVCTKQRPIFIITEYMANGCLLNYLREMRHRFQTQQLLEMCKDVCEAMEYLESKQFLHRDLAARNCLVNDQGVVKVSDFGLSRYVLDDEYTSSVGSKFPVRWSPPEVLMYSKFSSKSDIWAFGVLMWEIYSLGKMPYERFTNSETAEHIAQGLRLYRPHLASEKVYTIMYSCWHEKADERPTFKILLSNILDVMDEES

[3] = molecular target: T1, DCAF1(1073-1399)_E1398S (WDR domain, Avi/His-tagged); assay: fluorescence polarization; format: binding

CC(=O)N1CCN(c2ccc3c(NCCN)nc(C4(c5ccc(Cl)cc5)CCCCC4)nc3c2)CC1 [compound 13, VHF543]
IC50 [1]: IC50 determined by DCAF1 TR-FRET for selected DCAF1 binders

Cc1c(NC(=O)c2ccc(C(C)(C)O)cc2F)cc(F)cc1-c1ncnc2[nH]c(-c3ccc(CNCCOCCOCC(=O)N4CCCC(C(=O)N5CCN(c6ccc7c(NCCN)nc(C8(c9ccc(Cl)cc9)CCCCC8)nc7c6)CC5)C4)cc3)cc12 (centres unmarked) [DBt-6]
IC50 [2]: 510 nM
IC50 ([1]; read-out: IC50): 56 ± 37 nM
IC50 (BTK-NanoLuc): 2350 nM

Cc1cc(C)n2c1C=C1C=CC(CCC(=O)N3CCN(c4ccc5c(NCCN)nc(C(C)(C)c6ccc(Cl)cc6)nc5c4)CC3)=[N+]1[B-]2(F)F [bodipy labelled ligand]
Kd [3]: 69 ± 6 nM

From publication doi:10.1101/2023.04.09.536153v2, “Reinstating targeted protein degradation with DCAF1 PROTACs in CRBN PROTAC resistant settings” (biorxiv, 2023)
